Laboratory results reported in US7825260B2, “Aminopropanol derivatives as sphingosine-1-phosphate receptor modulators” (Novartis AG, priority 2003, dated 2010).

Tests used:
[1] = system: peripheral blood lymphocytes; assay: In vivo: Blood Lymphocyte Depletion; settings: rats, p.o.
Experimental: B. In vivo: Blood Lymphocyte Depletion
A compound of formula I or the vehicle is administered orally by gavage to rats. Tail blood for hematological monitoring is obtained on day −1 to give the baseline individual values, and at 2, 6, 24, 48 and 72 hours after application. In this assay, the compounds of formula I deplete peripheral blood lymphocytes when administered at a dose of 0.03 to 3 mg/kg. For example, following results are obtained: depletion of peripheral blood lymphocytes by more than 50%.

[2] = target: T1, human S1P receptor EDG-8 (S1P5) (Homo sapiens, UniProt Q9H228); assay: S1P receptor profiling, GTP[γ-35S] binding SPA, S1P5; type: biochemical; settings: for S1P5 mode of action: Agon = agonist; for EC50: GTP[γ-35S] binding to membranes of transfected CHO or RH7777 cells
T1 construct: expressed in transfected cells
Experimental: (§1) Sphingosine-1-phosphate (S1P) Receptor Profiling
(§2) Agonist activities of compounds are tested on the human S1P receptors EDG-1 (S1P1), EDG-3 (S1P3), EDG-5 (S1P2), EDG-6 (S1P4) and EDG-8 (S1P5). […] The assay technology used is SPA (scintillation proximity based assay). Briefly, DMSO dissolved compounds are serially diluted and added to SPA-bead (Amersham-Pharmacia) immobilised S1P receptor expressing membrane protein (10-20 μg/well) in the presence of 50 mM Hepes, 100 mM NaCl, 10 mM MgCl2, 10 μM GDP, 0.1% fat free BSA and 0.2 nM GTP [γ-^35S] (1200 Ci/mmol). After incubation in 96 well microtiterplates at RT for 120 min, unbound GTP [γ-^35S] is separated by a centrifugation step. Luminescence of SPA beads triggered by membrane bound GTP [γ-^35S] is quantified with a TOPcount plate reader (Packard). EC50s are calculated using standard curve fitting software. In this assay, the compounds of formula I have a binding affinity to S1P1 receptor <50 nM.

[3] = target: T2, human S1P receptor EDG-1 (S1P1) (Homo sapiens, UniProt P21453); assay: S1P receptor profiling, GTP[γ-35S] binding SPA, S1P1; type: biochemical; settings: for S1P1 mode of action: Agon = agonist; for EC50: GTP[γ-35S] binding to membranes of transfected CHO or RH7777 cells
T2 construct: expressed in transfected cells
Experimental: as §1, §2

[4] = target: T3, human S1P receptor EDG-3 (S1P3) (Homo sapiens, UniProt Q99500); assay: S1P receptor profiling, GTP[γ-35S] binding SPA, S1P3; type: biochemical; settings: for S1P3 mode of action: Agon = agonist; for EC50: GTP[γ-35S] binding to membranes of transfected CHO or RH7777 cells
T3 construct: expressed in transfected cells
Experimental: as §1, §2

[5] = target: T4, human S1P receptor EDG-6 (S1P4) (Homo sapiens, UniProt O95977); assay: S1P receptor profiling, GTP[γ-35S] binding SPA, S1P4; type: biochemical; settings: for S1P4 mode of action: Agon = agonist; for EC50: GTP[γ-35S] binding to membranes of transfected CHO or RH7777 cells
T4 construct: expressed in transfected cells
T4 sequence (O95977 1-384): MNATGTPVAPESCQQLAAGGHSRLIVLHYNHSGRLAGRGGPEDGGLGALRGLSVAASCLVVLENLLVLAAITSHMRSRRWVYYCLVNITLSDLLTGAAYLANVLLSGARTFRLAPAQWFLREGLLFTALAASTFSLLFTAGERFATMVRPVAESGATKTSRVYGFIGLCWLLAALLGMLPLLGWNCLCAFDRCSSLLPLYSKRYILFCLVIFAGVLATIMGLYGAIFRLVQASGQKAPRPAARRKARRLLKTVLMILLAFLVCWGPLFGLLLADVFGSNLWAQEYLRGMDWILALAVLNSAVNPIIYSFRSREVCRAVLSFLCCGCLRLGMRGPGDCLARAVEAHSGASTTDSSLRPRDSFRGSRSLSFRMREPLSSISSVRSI
Experimental: as §1, §2

T1 sequence (Q9H228 whole entry): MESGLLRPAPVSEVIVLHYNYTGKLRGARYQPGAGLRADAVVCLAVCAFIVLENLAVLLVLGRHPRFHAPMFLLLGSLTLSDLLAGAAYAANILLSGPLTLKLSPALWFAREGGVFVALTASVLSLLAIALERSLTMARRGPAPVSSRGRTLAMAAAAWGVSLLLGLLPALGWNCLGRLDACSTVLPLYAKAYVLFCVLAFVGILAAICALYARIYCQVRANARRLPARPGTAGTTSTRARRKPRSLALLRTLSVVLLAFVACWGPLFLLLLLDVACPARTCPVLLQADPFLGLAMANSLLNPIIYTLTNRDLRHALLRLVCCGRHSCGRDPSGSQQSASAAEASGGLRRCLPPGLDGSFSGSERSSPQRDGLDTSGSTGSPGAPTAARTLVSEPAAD
T2 sequence (P21453 whole entry): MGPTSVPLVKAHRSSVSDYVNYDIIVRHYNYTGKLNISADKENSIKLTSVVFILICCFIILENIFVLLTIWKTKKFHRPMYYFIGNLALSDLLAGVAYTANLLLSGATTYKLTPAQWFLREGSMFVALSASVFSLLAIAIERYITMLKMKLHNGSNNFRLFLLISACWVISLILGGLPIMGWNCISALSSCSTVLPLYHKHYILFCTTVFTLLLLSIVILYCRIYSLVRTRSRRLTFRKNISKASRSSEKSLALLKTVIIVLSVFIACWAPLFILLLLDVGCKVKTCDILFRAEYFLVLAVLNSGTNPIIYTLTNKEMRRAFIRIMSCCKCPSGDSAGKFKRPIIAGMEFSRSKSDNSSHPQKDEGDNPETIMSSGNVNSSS
T3 sequence (Q99500 whole entry): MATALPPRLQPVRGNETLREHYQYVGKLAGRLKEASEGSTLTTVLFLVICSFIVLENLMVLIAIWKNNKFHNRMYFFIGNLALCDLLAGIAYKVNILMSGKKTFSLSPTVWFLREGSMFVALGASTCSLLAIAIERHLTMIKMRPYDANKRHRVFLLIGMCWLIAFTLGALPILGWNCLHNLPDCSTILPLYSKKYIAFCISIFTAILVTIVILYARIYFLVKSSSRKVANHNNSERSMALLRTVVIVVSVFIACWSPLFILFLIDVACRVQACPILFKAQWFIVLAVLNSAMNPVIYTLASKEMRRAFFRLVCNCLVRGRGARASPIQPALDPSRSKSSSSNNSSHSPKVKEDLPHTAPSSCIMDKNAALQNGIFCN

SMILES	S1P5 mode of action [2]	EC50 [2] [nM]	melting point [°C]	S1P1 mode of action [3]	EC50 [3] [nM]	S1P3 mode of action [4]	EC50 [4] [nM]	S1P4 mode of action [5]	EC50 [5] [nM]	dose giving depletion of peripheral blood lymphocytes by more than 50% ([1]; after 6 h)	dose giving depletion of peripheral blood lymphocytes by more than 50% ([1]; after 24 h)	dose giving depletion of peripheral blood lymphocytes by more than 50% ([1]; after 48 h) [mg/kg after 48 h]
CCCCCOc1ccc2cc(CC[C@@](C)(N)CO)ccc2c1 [Example 1, (R)-2-amino-2-methyl-4-(6-pentyloxynaphthalen-2-yl)butan-1-ol]	–	–	–	–	–	–	–	–	–	0.02 mg/kg p.o. after 6 h,	0.3 mg/kg p.o. after 24 h,	>1
C[C@](N)(CO)CCc1ccc2oc(-c3ccc4c(c3)OCO4)nc2c1 [Example 25, (R)-2-Amino-4-(2-benzo[1,3]dioxol-5-yl-benzoxazol-5-yl)-2-methyl-butan-1-ol]	–	–	–	–	–	–	–	–	–	0.06 mg/kg p.o. after 6 h	–	0.3
CCOc1cccc(-c2nc3cc(CC[C@@](C)(N)CO)ccc3o2)c1 [Example 26, (R)-2-Amino-4-[2-(3-ethoxy-phenyl)-benzoxazol-5-yl]-2-methyl-butan-1-ol]	–	–	–	–	–	–	–	–	–	0.03 mg/kg p.o. after 6 h	–	0.2
C[C@](N)(CO)CCc1ccc2oc(-c3ccccc3)cc2c1 [Example 37, (R)-2-Amino-2-methyl-4-(2-phenyl-benzofuran-5-yl)-butan-1-ol]	–	–	–	–	–	–	–	–	–	0.40 mg/kg p.o. after 6 h	–	–

Further lines, with some results ahead:

S1P5 mode of action [2]	EC50 [2] [nM]	melting point [°C]	S1P1 mode of action [3]	EC50 [3] [nM]	S1P3 mode of action [4]	EC50 [4] [nM]	S1P4 mode of action [5]	EC50 [5] [nM]	SMILES	dose giving depletion of peripheral blood lymphocytes by more than 50% ([1]; after 6 h)	dose giving depletion of peripheral blood lymphocytes by more than 50% ([1]; after 24 h)	dose giving depletion of peripheral blood lymphocytes by more than 50% ([1]; after 48 h) [mg/kg after 48 h]
Agon	0.1	266 to 267	Agon	0.3	Agon	8.4	Agon	0.4	CCCCCOc1ccc2cc(CC[C@@](C)(N)COP(=O)(O)O)ccc2c1 [Example 12, Phosphoric acid mono-[(R)-2-amino-2-methyl-4-(6-pentyloxynaphthalen-2-yl)but-1-yl]ester]	–	–	–
Agon	0.4	–	Agon	0.06	Agon	5.7	Agon	1.2	C[C@@](N)(CCc1ccc2cc(OCCCC(F)(F)C(F)(F)F)ccc2c1)COP(=O)(O)O [Example 13]	–	–	–
Agon	0.8	–	Agon	2.8	inverse	47	Agon	1	CCCOc1ccc2cc(CC[C@@](C)(N)COP(=O)(O)O)ccc2c1 [Example 14]	–	–	–
Agon	5	–	Agon	17	Agon	> 1000	Agon	9	CCCCCc1nc2cc(CC[C@@](C)(N)COP(=O)(O)O)ccc2o1 [Example 42, Phosphoric acid mono-[(R)-2-amino-2-methyl-4-(2-pentyl-benzoxazol-5-yl)-butyl]ester]	–	–	–
Agon	0.4	–	Agon	1.6	Agon	1180	Agon	0.7	C[C@@](N)(CCc1ccc2oc(-c3ccccc3)cc2c1)COP(=O)(O)O [Example 49, Phosphoric acid mono-[(R)-2-amino-2-methyl-4-(2-phenyl-benzofuran-5-yl)-butyl]ester]	–	–	–
